Results from patent US20090036388A1, “Compounds” (priority 2007, published 2009).
Converted amounts (≈) assume the structure as drawn.

How the values were obtained:
[1] = test system: Plasmodium falciparum strain 3D7A; assay: [3H] hypoxanthine incorporation IC50 assay, P. falciparum 3D7A; format: cell-based; settings: 48 hours incubation; for IC50: Plasmodium falciparum
Protocol: (§1) Plasmodium falciparum strains 3D7A and W2.
(§2) The culture medium comprised RPMI 1640 with 25 mM HEPES, sodium bicarbonate and glutamine (GIBCO™ cat. ref.: 52400), supplemented with 10% of pooled human sera AB (Bioreclamation HMSRM-AB)) and HT supplement (0.15 mM hypoxanthine and 24 μM thymidine), (GIBCO™ cat. ref.: 41065). Human sera were decomplemented 30 min. at 56° C., aliquoted and stored frozen at −20° C. until use in this culture medium.
(§3) Red blood cells AB—stock suspensions were prepared from whole blood bags coming from incomplete blood donation, provided by the Spanish Red Cross (<25 days after sampling). This “whole blood” was aliquoted and stored at 4° C.
(§4) To prepare red blood cells for the assay, the whole blood was centrifuged and washed 3 times with RPMI without serum. The upper phase, containing white blood cells was removed. The washed red blood cells were kept as a 50% suspension in complete medium. The prepared cells were stored at 4° C. and were employed in the assay at any time up to 4 days after preparation.
(§5) Test compounds were dissolved at 2 mg/ml in 100% DMSO on the day of the assay. If necessary, complete dissolution was achieved by gentle heating (the mixture was heated at a temperature <37° C.) and sonication (sonication bath).
(§6) For IC50 determinations, 10 serial 2-fold dilutions were prepared in complete medium in the presence of a constant amount of DMSO. Any obvious signs of insolubility of the stock solutions in 100% DMSO or precipitation when these solutions were diluted in assay media, were recorded.
(§7) Plasmodium falciparum strains were maintained in complete medium at an hematocrit of 5% in continuous culture using a method adapted from Trager and Jensen (1, 2).
(§8) The parasitemia was calculated by counting the percentage of parasitized erythrocytes by optical microscopy. Thin films of blood were made every day from each culture flask, fixed with methanol and stained for 10 min. in Giemsa (Merck, cat. ref.: 1.09204) at 10% in buffered water pH 7.2. The glass slides were observed and counted with an optical microscope (Nikon, Eclipse E200) equipped with a 100× immersion oil objective.
(§9) The culture was maintained at an hematocrit of 5%, with a daily change of medium and was diluted when parasitemia had reached about 5%.
(§10) [^3H] Hypoxanthine incorporation assay was conducted using a method adapted from Desjardins et al. (3). The assays were performed in 96 wells flat bottom microplates.
(§11) 1. Serial dilutions of the test compounds (50 μl of a 5× solution/well) were deposited in duplicate. Compounds of this invention (Table 1) were tested in this assay. Chloroquine and Azithromycin were used as control compounds for each assay.
(§12) 3. [^3H]-Hypoxanthine (Amersham Biosciences, cat. ref.: TRK74) was added extemporaneously to the inoculum suspension at a concentration of 1 μCi/ml (equating to […]). 200 μl of the resulting suspension was distributed into each well (other than the control well H12 described below) leading to a final volume of 250 μl per well, at 1% of hematocrit and 0.4% of parasitemia/well.
(§13) 4. In each plate, 2 columns were reserved for control wells: • Column 11: Positive control wells: PRBCs with 0.2% DMSO—(i) to determine DMSO solvent effect on parasite growth (at a final concentration of 0.2%) and (ii) to compare with cultures treated with test compounds. • Column 12 (comprising wells A12-H12): • A12-D12—Background value wells: Uninfected RBCs—blank control to obtain the background reading from RBCs without parasites.
(§14) E12-G12—Solvent effect wells: PRBCs without DMSO—to determine DMSO solvent effect on PRBCs by comparing these wells with column 11 wells.
(§15) H12—Non-radioactive well: PRBCs with cold hypoxanthine—(i) to carry out a thin blood film to determine parasitemia value after incubation by microscopy and (ii) to ensure that the parasites have grown properly during the assay. […]

[2] = test system: Plasmodium falciparum strain W2; assay: [3H] hypoxanthine incorporation IC50 assay, P. falciparum W2; format: cell-based; settings: P. falciparum W2, 48 hours incubation
Protocol: as §1, §2, §3, §4, §5, §6, §7, §8, §9, §10, §11, §12, §13, §14, §15

[3] = test system: Plasmodium berghei; settings: cited from earlier work
[4] = test system: Plasmodium yoelii nigeriensis; settings: cited from earlier work
[5] = test system: Plasmodium cynomolgi; settings: rhesus monkey; cited from earlier work
[6] = test system: Plasmodium vivax; settings: non-immune patients, as compared to controls; cited from earlier work
[7] = test system: Plasmodium falciparum; settings: non-immune patients, as compared to controls; cited from earlier work

| Compound | IC50 [1] [µg/mL] | IC50 [2] [µg/mL] | further results |
| --- | --- | --- | --- |
| CC[C@H]1OC(=O)[C@H](C)[C@@H](O[C@H]2C[C@@](C)(OC)[C@@H](O)[C@H](C)O2)[C@H](C)[C@@H](O[C@@H]2O[C@H](C)C[C@H](N(C)C)[C@H]2OCCC(=O)NCCNc2ccnc3cc(Cl)ccc23)[C@](C)(O)C[C@@H](C)CN(C)[C@H](C)[C@@H](O)[C@]1(C)O [Example 11, 2′-O-[3-({2-[(7-chloro-4-quinolinyl)amino]ethyl}amino)-3-oxopropyl]9-deoxo-9a-methyl—9a-aza-9a-homoerythromycin A] | ≤ 0.1 | ≤ 0.1 | – |
| midecamycinin | – | – | activity in mouse model [3]: active; activity in mouse model [4]: active; efficacy in monkey model [5]: no efficacy |
| CC[C@H]1OC(=O)[C@H](C)[C@@H](O[C@H]2C[C@@](C)(OC)[C@@H](O)[C@H](C)O2)[C@H](C)[C@@H](O[C@@H]2O[C@H](C)C[C@H](N(C)C)[C@H]2OCCCNC(=O)CCCNc2ccnc3cc(Cl)ccc23)[C@](C)(O)C[C@@H](C)CN(C)[C@H](C)[C@@H](O)[C@]1(C)O [Example 1, 2′-O-[3-({4-[(7-chloro-4-quinolinyl)amino]butanoyl}amino)propyl]-9-deoxo-9a-methyl-9a-aza-9a-homoerythromycin A] | ≤ 0.1 | ≤ 0.1 | – |
| CC[C@H]1OC(=O)[C@H](C)[C@@H](O[C@H]2C[C@@](C)(OC)[C@@H](O)[C@H](C)O2)[C@H](C)[C@@H](O[C@@H]2O[C@H](C)C[C@H](N(C)C)[C@H]2OCCCNc2ccnc3cc(Cl)ccc23)[C@](C)(O)C[C@@H](C)CN(C)[C@H](C)[C@@H](O)[C@]1(C)O [Example 3, 2′-O-{3-[(7-Chloro-4-quinolinyl)amino]propyl}-9-deoxo-9a-methyl-9a-aza-9a-homoerythromycin A] | ≤ 0.1 | ≤ 0.1 | – |
| CC[C@H]1OC(=O)[C@H](C)[C@@H](O[C@H]2C[C@@](C)(OC)[C@@H](O)[C@H](C)O2)[C@H](C)[C@@H](O[C@@H]2O[C@H](C)C[C@H](N(C)C)[C@H]2OCCCNC(=O)CNc2ccnc3cc(Cl)ccc23)[C@](C)(O)C[C@@H](C)CN(C)[C@H](C)[C@@H](O)[C@]1(C)O [Example 7, 2′-O-[3-({2-[(7-chloro-4-quinolinyl)amino]ethanoyl}amino)propyl]-9-deoxo-9a-methyl-9a-aza-9a-homoerythromycin A] | ≤ 0.1 | ≤ 0.1 | – |
| CC[C@H]1OC(=O)[C@H](C)[C@@H](O[C@H]2C[C@@](C)(OC)[C@@H](O)[C@H](C)O2)[C@H](C)[C@@H](O[C@@H]2O[C@H](C)C[C@H](N(C)C)[C@H]2OCCCNC(=O)CCCNc2ccnc3ccccc23)[C@](C)(O)C[C@@H](C)CN(C)[C@H](C)[C@@H](O)[C@]1(C)O [Example 12, 2′-O-[3-({4-[(4-quinolinyl)amino]butanoyl}amino)propyl]-9-deoxo-9a-methyl-9a-aza-9a-homoerythromycin A] | 0.2 to 1 (≈ 0.196 to 0.982 µM) | 0.1 to 0.2 (≈ 0.0982 to 0.196 µM) | – |
| CC[C@H]1OC(=O)[C@H](C)[C@@H](O[C@H]2C[C@@](C)(OC)[C@@H](O)[C@H](C)O2)[C@H](C)[C@@H](O[C@@H]2O[C@H](C)C[C@H](N(C)C)[C@H]2OCCCNC(=O)CNc2ccnc3ccccc23)[C@](C)(O)C[C@@H](C)CN(C)[C@H](C)[C@@H](O)[C@]1(C)O [Example 9, 2′-O-[3-({2-[(4-quinolinyl)amino]ethanoyl}amino)propyl]-9-deoxo-9a-methyl-9a-aza-9a-homoerythromycin A] | 0.1 to 0.2 (≈ 0.101 to 0.202 µM) | ≤ 0.1 | – |
| CC[C@H]1OC(=O)[C@H](C)[C@@H](O)[C@H](C)[C@@H](O[C@@H]2O[C@H](C)C[C@H](N(C)C)[C@H]2OCCCNC(=O)CNc2ccnc3ccccc23)[C@](C)(O)C[C@@H](C)CN(C)[C@H](C)[C@@H](O)[C@]1(C)O [Example 10, 2′-O-[3-({2-[(4-quinolinyl)amino]ethanoyl}amino)propyl]-3-O-decladinosyl-9-deoxo-9a-methyl-9a-aza-9a-homoerythromycin A] | 1 to 2.5 (≈ 1.2 to 3 µM) | 0.2 to 1 (≈ 0.24 to 1.2 µM) | – |
| CC[C@H]1OC(=O)[C@H](C)[C@@H](O[C@H]2C[C@@](C)(OC)[C@@H](O)[C@H](C)O2)[C@H](C)[C@@H](O[C@@H]2O[C@H](C)C[C@H](N(C)C)[C@H]2O)[C@](C)(O)C[C@@H](C)CN(C)[C@H](C)[C@@H](O)[C@]1(C)O [azithromycin] | – | 2.5 to 3 (≈ 3.34 to 4.01 µM) | IC50 3D7A [1]: H, >H; prophylactic efficacy for Plasmodium vivax [6]: 98.9%; prophylactic efficacy for Plasmodium falciparum [7]: 71.6%; efficacy in monkey model [5]: active |
| CC[C@H]1OC(=O)[C@H](C)[C@@H](O)[C@H](C)[C@@H](O[C@@H]2O[C@H](C)C[C@H](N(C)C)[C@H]2OCCCNC(=O)CNc2ccnc3cc(Cl)ccc23)[C@](C)(O)C[C@@H](C)CN(C)[C@H](C)[C@@H](O)[C@]1(C)O [Example 8, 2′-O-[3-({2-[(7-chloro-4-quinolinyl)amino]ethanoyl}amino)propyl]-3-O-decladinosyl-9-deoxo-9a-methyl-9a-aza-9a-homoerythromycin A] | ≤ 0.1 | 0.1 to 0.2 (≈ 0.115 to 0.231 µM) | – |
| CC[C@H]1OC(=O)[C@H](C)[C@@H](O[C@H]2C[C@@](C)(OC)[C@@H](O)[C@H](C)O2)[C@H](C)[C@@H](O[C@@H]2O[C@H](C)C[C@H](N(C)C)[C@H]2OCCCNc2ccnc3ccccc23)[C@](C)(O)C[C@@H](C)CN(C)[C@H](C)[C@@H](O)[C@]1(C)O [Example 6, 2′-O-{3-[(4-quinolinyl)amino]propyl}-9-deoxo-9a-methyl-9a-aza-9a-homoerythromycin A] | ≤ 0.1 | ≤ 0.1 | – |
| CC[C@H]1OC(=O)[C@H](C)[C@@H](O)[C@H](C)[C@@H](O[C@@H]2O[C@H](C)C[C@H](N(C)C)[C@H]2OCCCNc2ccnc3cc(Cl)ccc23)[C@](C)(O)C[C@@H](C)CN(C)[C@H](C)[C@@H](O)[C@]1(C)O [Example 5, 2′-O-{3-[(7-Chloro-4-quinolinyl)amino]propyl}-3-O-decladinosyl-9-deoxo-9a-methyl-9a-aza-9a-homoerythromycin A] | ≤ 0.1 | ≤ 0.1 | – |
| CC[C@H]1OC(=O)[C@H](C)[C@@H](O)[C@H](C)[C@@H](O[C@@H]2O[C@H](C)C[C@H](N(C)C)[C@H]2OCCCNc2ccnc3cc(Cl)ccc23)[C@](C)(O)C[C@@H](C)CN(C)[C@H](C)[C@@H](OC(C)=O)[C@]1(C)O [Example 4, 11-O-Acetyl-2′-O-{3-[(7-Chloro-4-quinolinyl)amino]propyl}-3-O-decladinosyl-9-deoxo-9a-methyl-9a-aza-9a-homoerythromycin A] | ≤ 0.1 | ≤ 0.1 | – |
| CC[C@H]1OC(=O)[C@H](C)[C@@H](O)[C@H](C)[C@@H](O[C@@H]2O[C@H](C)C[C@H](N(C)C)[C@H]2OCCCNC(=O)CCCNc2ccnc3cc(Cl)ccc23)[C@](C)(O)C[C@@H](C)CN(C)[C@H](C)[C@@H](O)[C@]1(C)O [Example 2, 2′-O-[3-({4-[(7-chloro-4-quinolinyl)amino]butanoyl}amino)propyl]-3-O-decladinosyl-9-deoxo-9a-methyl-9a-aza-9a-homoerythromycin A] | 0.1 to 0.2 (≈ 0.112 to 0.224 µM) | 0.1 to 0.2 (≈ 0.112 to 0.224 µM) | – |
